In data set [1] the test system is cortex and hippocampus apoptosis. The conditions noted are these: twice daily i.p., neonatal MCA occlusion; cited from earlier work.
A further data set has as its system nigral THir neurons. The data set is described as follows: Unbiased stereological counts of THir cells in the substantia nigra after striatal 6-OHDA. It is filed as in vivo, Sprague Dawley rats. The settings on record: for number of surviving THir neurons in the lesioned SN relative to the intact side: s.c. pellets 3 days prior to intrastriatal 6-OHDA, 6 weeks post-6-OHDA (experiment 1); for protection of nigral THir neurons against striatal 6-OHDA infusion: s.c. pellets, 6 weeks post-6-OHDA, vs control. The protocol: Rats were anesthetized prior to surgery with Equi-Thesin (0.3 ml/100 g body weight i.p.; chloral hydrate 42.5 mg/ml+sodium pentobarbital 9.72 mg/ml), their heads shaved, and then they were placed in a stereotaxic frame. Their skin was swabbed with Betadyne followed by 70% ETOH. The scalp was then opened to expose the skull. Two 1 mm holes were drilled into the skull and rats were injected in two sites in the striatum with 6-OHDA (MP Biomedicals, Solon, Ohio; 5 μg/μl 6-OHDA in 0.2% ascorbic acid, 0.9% saline solution). The coordinates for these injections were AP −1.6 mm, ML +2.4 mm, DV −4.2 mm and AP −0.2 mm, +ML 2.6 mm, DV −7.0 mm. The needle was zeroed at the skull directly above the injection site in order to target the DV coordinate. For each injection, the needle was lowered slowly to the injection site and 1 minute elapsed before injection commenced, 6-OHDA was injected at 0.5 μl/minute and at the end of the injection the needle was held in place for an additional 2 minutes prior to retraction. The wound area was cleaned with Betadine solution and the scalp was closed with surgical wound clips. This lesion paradigm results in a progressive loss of TH phenotype and frank DA cell death.
Animals were deeply anesthetized (60 mg/kg, pentobarbital, i.p.) and perfused intracardially with warm 0.9% saline containing 1 ml/L 10,000 USP heparin followed by ice-cold 0.9% saline. For immunoshistochemistry brains were removed, post fixed for 24 hours in 4% paraformaldehyde and transferred to 30% sucrose in 0.1M PO4 buffer. For determination of purine levels brains were immediately removed and flash frozen in 3-methyl butane. Brains were stored at −80° C. until analysis.
Brains were frozen on dry ice and sectioned at a 40 μm thickness using a sliding microtome. Every sixth section through the SN was processed for labeling with antisera against TH. Following blocking in 10% normal goat serum, tissue was incubated in primary antisera directed against TH (Chemicon MAB318, mouse anti TH 1:4,000) overnight at room temperature. Following primary incubation, sections were incubated in biotinylated secondary antisera against mouse IgG (Chemicon AP124B, 1:400) followed by the Vector ABC detection kit employing horseradish peroxidase (Vector Laboratories, Burlingame, Calif.). Antibody labeling was visualized by exposure to 0.5 mg/ml 3,3′ diaminobenzidine (DAB) and 0.03% H2O2 in Tris buffer. Sections were mounted on subbed slides, dehydrated to xylene and coverslipped with Cytoseal (Richard-Allan Scientific, Waltham, Mass.).
Unbiased stereological counts of THir cells were performed using a BX52 Olympus microscope (Olympus America Inc.) interfaced with Microbrightfield stereological software and a Microfire CCD camera (Optronics, Goleta, Calif.). Utilizing 2 μm guard zones and a 50 μm×50 μm counting frame a grid size of 112 μm×183 μm was employed to assure that all coefficient of error values were ≦0.10. Using the optical fractionator principle, the regions of interest were individually outlined under a low magnification (1.25×). Using a 60× magnification lens with a 1.4 N/A the section thickness was empirically determined by first bringing the top of the section into focus and then using Microbrightfield software to step through the z-axis in 1 μm increments until the very bottom of the section was in focus. […]

The next data set has as its system retinal ganglion cells. The settings on record: repeated i.p. every eight hours, optical nerve transection, adult rats; cited from earlier work.
A short description of data set [2]: Oral allantoin administration, plasma allantoin levels in monkeys. It is filed as in vivo, African green monkey. The protocol: To determine whether oral allantoin administration could increase plasma levels of allantoin in non-human primates, African green monkeys were fed allantoin (n=4). All monkeys were initially fed 26 mg/kg/day for 1 week, after which the allantoin concentration was increased to a level of 52 mg/kg/day for an additional week. The allantoin was mixed to the appropriate concentration in fruit juice and given to the monkeys to drink. For plasma analysis of allantoin venous blood was obtained from the right ventricle (rat) and collected from repeated blood draws (African green monkey). Blood was immediately centrifuged at 10,500 rpms (this needs to be in G) for 5 minutes. Supernatant was then removed and analyzed for allantoin. Enzymatic detection of allantoin was performed as previously described with the exception of reaction volumes being adjusted to accommodate the use of a 96 well microtiter plate (Muratsubaki et al., Enzymatic assay of allantoin in serum using allantoinase and allantoate amidohydrolase, Anal. Biochem. 359:161-166 (2006)). […] Following a 15 minute incubation, absorbance was read on a spectrometer at 340 nm. […] Following a 10 minute incubation absorbance was once again measured at 340 nm. The final absorbance was subtracted from the absorbance following the addition of allantoinase. […] Allantoin levels in plasma were determined utilizing the enzymatic detection assay. […]

On to `OC[C@H]1O[C@@H](n2cnc3c(O)ncnc32)[C@H](O)[C@@H]1O` [inosine], for which, in data set [1], the “Cytochrome C expression in the cortex and hippocampus” value was “decreased”; the “TUNEL staining in the cortex and hippocampus” value was “decreased”. Also, in the data set on nigral THir neurons, the “number of surviving THir neurons in the lesioned SN relative to the intact side” value was 56%±9.0% and the “protection of nigral THir neurons against striatal 6-OHDA infusion” value is recorded as “significantly protected”. For the same compound, the “sparing of retinal ganglion cells” value in the data set with retinal ganglion cells is “significant sparing”.
On to `NC(=O)NC1NC(=O)NC1=O` (stereo not drawn) [allantoin], for which, in the data set on nigral THir neurons, the “number of surviving THir neurons in the lesioned SN relative to the intact side” value is recorded as 61%±7.9% and the “protection of nigral THir neurons against striatal 6-OHDA infusion” value is “significantly protected”. Further, the plasma allantoin levels result in data set [2] (African green monkey, oral, after one week at 52 mg/kg/day (following 1 week at 26 mg/kg/day), vs baseline, trough) is on record as “tripling”. In addition, the negative health consequences entry in data set [2] (monkeys, oral allantoin 26 then 52 mg/kg/day, 1 week each) is reported as “Neither the rats nor the monkeys exhibited any obvious negative health consequences”.
